The text below walks through data of US5155127A, “N-(substituted aryl)-N'-(substituted alkoxy)-ureas and thioureas as antihypercholesterolemic and antiatherosclerotic agents” (priority 1990, dated 1992).

Structures are written as SMILES.

The target in the test is T1, acyl-CoA:cholesterol acyltransferase (ACAT) (Oryctolagus cuniculus, UniProt G1SFD9).
T1 construct: tissue preparation containing rabbit intestinal microsomes; from tissue; host or cells: rabbit intestinal microsomes
T1 sequence (G1SFD9 1-524): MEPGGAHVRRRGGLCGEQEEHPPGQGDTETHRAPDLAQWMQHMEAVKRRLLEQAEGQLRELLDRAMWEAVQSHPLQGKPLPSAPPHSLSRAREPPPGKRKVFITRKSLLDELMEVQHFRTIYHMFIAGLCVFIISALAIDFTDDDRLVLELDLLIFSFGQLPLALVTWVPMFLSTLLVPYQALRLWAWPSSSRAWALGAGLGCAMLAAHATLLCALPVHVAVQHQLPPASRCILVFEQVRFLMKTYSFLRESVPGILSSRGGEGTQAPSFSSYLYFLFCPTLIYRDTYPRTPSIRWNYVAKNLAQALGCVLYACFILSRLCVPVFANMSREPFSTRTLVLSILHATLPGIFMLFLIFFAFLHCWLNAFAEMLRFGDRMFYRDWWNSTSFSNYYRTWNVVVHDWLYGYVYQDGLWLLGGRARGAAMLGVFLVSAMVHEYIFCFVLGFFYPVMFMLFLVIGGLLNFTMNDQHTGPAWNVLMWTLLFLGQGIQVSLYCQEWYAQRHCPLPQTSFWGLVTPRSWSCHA
The experiment in a line: in vitro ACAT inhibition: radio-labeled cholesterol oleate formation from radio-labeled oleic acid in rabbit intestinal microsomes. The format is biochemical. The note with it: read-out: IC50 (concentration of test compound required to inhibit cholesteryl oleate formation to 50% of control). How it is done:
The ability of representative compounds of the present invention to inhibit ACAT was measured using an in vitro test more fully described in Field, F. J. and Salome, R. G., Biochimica et Biophysica Acta, volume 712, pages 557-570 (1982). The test assesses the ability of a test compound to inhibit the acylation of cholesterol by oleic acid by measuring the amount of radio-labeled cholesterol oleate formed from radio-labeled oleic acid in a tissue preparation containing rabbit intestinal microsomes. The data in Table I is expressed as IC50 values, i.e., the concentration of test compound required to inhibit cholesteryl oleate formation to 50% of control.

As to `CC(C)c1cccc(C(C)C)c1NC(=O)NOC(c1ccccc1)c1ccccc1` [Example 1, N-[2,6-Bis(1-methylethyl)phenyl]-N'-(diphenylmethoxy)-urea], the IC50 came out at 30 nM.
For the compound `CC(C)c1cccc(C(C)C)c1NC(=O)NOCc1cccc2ccccc12` [Example 3, N-[2,6-Bis(1-methylethyl)phenyl]-N'-(1-naphthalenylmethoxy)-urea], the IC50 was 92 nM.
`CC(C)c1cccc(C(C)C)c1NC(=O)NOC(c1ccccc1)(c1ccccc1)c1ccccc1` [Example 2, N-[2,6-Bis(1-methylethyl)phenyl]-N'-(triphenylmethoxy)urea]: the IC50 was determined as 53 nM.
